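How tested: cells in 96-well plates exposed to compound for 48 hours at five concentrations. At the GI50, growth is halved. Definition used: TGI = concentration required for complete inhibition of growth.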
Tests used:
Assay in all cases: NCI anticancer screen, dose series, 48 h
UO-31 renal = test system: UO-31 renal
HOP-92 NSCLC = test system: HOP-92 NSCLC
M14 melanoma = test system: M14 melanoma
SNB-19 CNS = test system: SNB-19 CNS
OVCAR-3 ovarian = test system: OVCAR-3 ovarian
PC-3 prostate = test system: PC-3 prostate
RPMI-8226 leukemia = test system: RPMI-8226 leukemia
HS 578T breast = test system: HS 578T breast
NCI-H226 lung = test system: NCI-H226 lung
SK-MEL-5 melanoma = test system: SK-MEL-5 melanoma

| Compound | GI50 (UO-31 renal) [µM] | TGI (UO-31 renal) [µM] | GI50 (HOP-92 NSCLC) [µM] | TGI (HOP-92 NSCLC) [µM] | GI50 (M14 melanoma) [µM] | TGI (M14 melanoma) [µM] | GI50 (SNB-19 CNS) [µM] | TGI (SNB-19 CNS) [µM] | GI50 (OVCAR-3 ovarian) [µM] | TGI (OVCAR-3 ovarian) [µM] | GI50 (PC-3 prostate) [µM] | TGI (PC-3 prostate) [µM] | GI50 (RPMI-8226 leukemia) [µM] | TGI (RPMI-8226 leukemia) [µM] | GI50 (HS 578T breast) [µM] | TGI (HS 578T breast) [µM] | GI50 (NCI-H226 lung) [µM] | TGI (NCI-H226 lung) [µM] | GI50 (SK-MEL-5 melanoma) [µM] | TGI (SK-MEL-5 melanoma) [µM] |
| --- | --- | --- | --- | --- | --- | --- | --- | --- | --- | --- | --- | --- | --- | --- | --- | --- | --- | --- | --- | --- |
| O=S(=O)(Nc1ccc2ccccc2c1)c1ccc(-c2cnc(C3CC3)o2)cc1 | 1.68 | 18.8 | 3.68 | 30.9 | 0.701 | 14.9 | 1.49 | > 100 | 0.435 | 5.37 | 1.69 | 19.1 | 3.18 | 24.8 | 0.811 | 13.2 | 3.99 | 20.4 | 0.829 | 12.7 |
| C1CCN2CC3CCCN4CCCC(C2C1)C34 (stereo unspecified) | – | – | – | > 100 | – | > 100 | – | > 100 | – | > 100 | – | > 100 | – | > 100 | – | > 100 | – | > 100 | – | > 100 |
| N#Cc1c(N)nc(N2CCSCC2)c(C#N)c1-c1ccc(O)cc1 | 23.2 | > 100 | 10.1 | 47.5 | – | – | 27.9 | 98.9 | 17.5 | 44.8 | 19.8 | > 100 | 17.3 | 48.5 | 25.1 | > 100 | 21.9 | 58.5 | 12.7 | 28 |
| COC(=O)C1=C(O)[C@H](C(=O)OC)[C@]2(O)[C@@H](C(=O)OC)[C@H]1C[C@@H](c1ccc(OC(=O)/C=C/c3ccco3)cc1)[C@@H]2C(=O)OC | – | – | 18.1 | 48.3 | 10.7 | 23.2 | 22.6 | 87.5 | 27.6 | 82.5 | 21.5 | 88.3 | 0.293 | 57.5 | > 100 | > 100 | 15.8 | 37.1 | 27.1 | 94.4 |
| CCN(CC)CC(C)(C)C(=O)/C=C/c1ccc(/C=C/C(=O)C(C)(C)CN(CC)CC)cc1 | – | 4.96 | – | 1.46 | – | 2.46 | – | 4.21 | – | 1.76 | – | 1.51 | – | 0.46 | – | 4.45 | – | 6.97 | – | 3.7 |
| CSc1ccc(C2=NN(C(C)=O)C(c3ccc(F)cc3)C2)cc1 (stereo unspecified) | 14.2 | 29.8 | 10.1 | 22.1 | 14.4 | 28.8 | 8.19 | 37 | 16.2 | 49.5 | 12.7 | 42.4 | 12 | 32.5 | 20.8 | 49.7 | 13.7 | 31.5 | 12.9 | 26.4 |
| CC(=O)O[C@H]1C(=O)[C@@]2(C)[C@H]([C@H](OC(=O)c3ccccc3)[C@@]3(O)C[C@H](O)C(C)=C1C3(C)C)[C@]1(OC(C)=O)CO[C@@H]1C[C@@H]2O | – | > 100 | – | > 100 | – | 74.8 | – | > 100 | – | > 100 | – | > 100 | – | > 100 | – | 96.3 | – | > 100 | – | > 100 |
| COc1cc(-c2ccc(NC(=O)NC3CC3)c(OC)c2)ccc1NC(=O)NC1CC1 | 5.27 | > 100 | 7.66 | > 67.7 | > 100 | > 100 | 8.87 | > 100 | 25.7 | > 100 | 9.01 | > 100 | 2.47 | > 24.7 | – | > 28.6 | 7.25 | > 100 | 4.84 | > 100 |
| C/C=C(/C)C(=O)OC1C=C(CO)C(=O)C(OC(=O)C(C)(O)C(C)Cl)C1C(C)C (stereo unspecified) | 1.34 | 2.64 | 1.77 | 3.57 | 1.6 | 3.5 | 1.48 | 2.91 | 0.648 | 1.98 | 1.45 | 3.3 | 0.429 | 2.65 | 4.78 | 24.4 | 3.72 | 13 | 1.38 | 2.75 |
| COc1ccc(CNc2cnc3cc(N)cc(N)c3n2)cc1 | 16.3 | 33.7 | 24.1 | 54.3 | 20.5 | 43.9 | 52.3 | > 100 | 24.5 | > 100 | 34.2 | > 100 | 23 | 82.3 | 24.2 | 69.3 | – | – | 18.9 | 35.2 |
| CC[C@]12C=CCN3CC[C@@]4(c5ccc(OC)cc5N(C)[C@H]4[C@@](O)(C(=O)OC)[C@@H]1OC(=O)CCC(=O)N[C@H](Cc1c[nH]c4ccccc14)C(=O)OC)[C@@H]32 | 2.97 | 13.7 | 4.02 | 24.4 | 4.06 | > 100 | 4.74 | 48.8 | 3.8 | 16.4 | 2.95 | 17 | 3.63 | 44.7 | 5.52 | 28.7 | 5.39 | 27.5 | 2.54 | 7.14 |
| COC(=O)C(=O)C(C(=O)C(=O)Nc1ccc(C)cc1)c1nc2ccc(C(=O)c3ccccc3)cc2[nH]c1=O (stereo unspecified) | – | > 100 | – | > 100 | – | – | – | > 100 | – | > 100 | – | > 100 | – | > 100 | – | > 100 | – | > 100 | – | > 100 |
| COC(=O)c1ccc2c(c1)c1c(C)c3ccncc3c(C)c1n2C | 0.0717 | 77.5 | 0.378 | > 100 | 0.453 | 36.3 | 0.206 | > 100 | 0.536 | 47.2 | 0.3 | > 100 | 0.259 | 25.1 | 0.561 | > 100 | 0.352 | 13.2 | 0.232 | 0.912 |
| CC1CCc2c(c(CC3CC(=O)NC(=O)C3)nn2-c2ccccc2)C1 (stereo unspecified) | – | > 100 | – | > 100 | – | > 100 | – | > 100 | – | > 100 | – | > 100 | – | > 100 | – | > 100 | – | > 100 | – | > 100 |
| CC1=NN(C(=O)c2ccncc2)C(=O)C1N=Nc1ccc2ccccc2c1 (stereo unspecified) | – | > 100 | – | > 100 | – | > 96.2 | – | > 100 | – | > 100 | – | > 100 | – | > 100 | – | > 100 | – | > 100 | – | > 100 |
